Data taken from PMC12040169 (PLOS Biology, 2025).

Assay: in vitro
Conditions: human, hela cells, % viability

SMILES	viability at 28.5 h, 10 µM
Cn1cc(C(=O)NCC(c2ccccc2F)N2CCCC2)ccc1=O (stereo not shown) [CBK281950]	83.9%
Cc1nccn1CCC1CCN(C(=O)c2cnn(C)c2)CC1 [CBK281951]	89.3%
CC(=O)N1CCC(C(=O)NCCc2cccc(C)c2)C1 (stereo not shown) [CBK281952]	110%
Cc1cc(CN(C)Cc2ccc(N3CCCC3)c(F)c2)n[nH]1 [CBK281953]	104%
Cc1nccn1CCC(=O)NCCc1ccc(N(C)C)cc1 [CBK281954]	82.6%
CCN1CCC(CC(=O)N2CCC(c3ccccc3)C2)CC1 (stereo not shown) [CBK281958]	79.5%
Cc1noc(C)c1CC(=O)N1CCC(c2ccccc2)C1 (stereo not shown) [CBK281959]	102%
CCN1CCc2cc(CN3CCCC(Cn4ccnc4C)C3)ccc21 (stereo not shown) [CBK281965]	96.9%
CN(CCc1ccccn1)C(=O)C1CN(C(=O)C2CC23CCC3)C1 (stereo not shown) [CBK281969]	104%
O=C(CN1CCCC1Cn1cccn1)N1CCCc2ccccc21 (stereo not shown) [CBK281971]	89%
Cc1ccc(C(C)(C)C(=O)N2CCC(CC(=O)N(C)C)CC2)cc1 [CBK281973]	99.8%
Cc1nccn1CC1CCCN(Cc2nc3ccccc3n2C)C1 (stereo not shown) [CBK281975]	110%
Cc1cc(C)n(C2CCN(Cc3ccc(-n4ccnc4C)cc3)CC2)n1 [CBK281976]	112%
Cc1nccn1CCNC(=O)CC1C(=O)N(C)c2ccccc21 (stereo not shown) [CBK281977]	101%
CC(C)(C)NC(=O)Cn1cncc1-c1[nH]c2ccccc2c1Cl [CBK281981]	105%
Cc1nc(C(F)(F)F)ccc1C(=O)NCCn1ccnc1C [CBK281982]	88.9%
Cc1nccn1CCNC(=O)Cn1cnc2ccccc21 [CBK281983]	102%
Cc1cc(CN(C)Cc2c(C)nn(-c3ccc(F)cc3)c2C)n[nH]1 [CBK281990]	95%
CN1CCC(C(=O)Nc2cccc(Cn3cccn3)c2)C1 (stereo not shown) [CBK281991]	100%
CC(CNC(=O)CCc1cn(C)c2ccccc12)N1CCOCC1 (stereo not shown) [CBK281996]	87.4%
CCn1nc(C)c(-c2cncn2CCCOc2cccc(C)c2)c1C [CBK281997]	98.2%
CCn1nc(C)c(-c2cncn2Cc2ccccc2CN(C)C)c1C [CBK281998]	88.1%
CCCC(=O)NCCn1nc(-c2ccccc2F)cc1CN(C)C [CBK282000]	111%
Cc1cc(N(C)C)cc(C2CCCN(C(=O)C3CCC3)C2)n1 (stereo not shown) [CBK282004]	88.7%

SMILES	viability at 28.5 h, 10 µM
CC(C)CC(=O)NCCn1nc(-c2ccccc2F)cc1CN(C)C [CBK282005]	97.4%
CN(C)Cc1cc(-c2ccccc2F)nn1CCNC(=O)C1CC1 [CBK282006]	90.5%
CCCC(=O)NCc1ccc(-c2cc(CN(C)C)n(C)n2)cc1 [CBK282007]	98.4%
CN1CC(C(=O)NCC(c2ccccc2)N2CCCCCC2)CC1=O (stereo not shown) [CBK282008]	105%
Cc1nn(CCNC(=O)C(c2ccc(F)cc2)N(C)C)c(C)c1C (stereo not shown) [CBK282009]	89.2%
Cc1cc(C)n(C(C)CC(=O)N2CCN(C)CC2c2ccccc2)n1 (stereo not shown) [CBK282014]	92.2%
CCN1CC(C(=O)N2CCN(C)CC2c2ccccc2)CC1=O (stereo not shown) [CBK282026]	92.2%
CCN1CC(C(=O)N2CCCC(COc3ccc(F)cc3)C2)CC1=O (stereo not shown) [CBK282028]	85.3%
CCC(NC(=O)C(C)n1cc(Cl)cn1)c1ccc(OC)cc1 (stereo not shown) [CBK282029]	95.3%
CN(CC1OCCc2ccccc21)C(=O)CCC1CCCO1 (stereo not shown) [CBK282030]	87.1%
O=C(CCC1CCCO1)N1CCCC(COc2ccc(F)cc2)C1 (stereo not shown) [CBK282031]	97.7%
CCc1cc(C(=O)N2CCC(Oc3ccc(F)cc3)CC2)n(C)n1 [CBK282034]	86.5%
COC(C)CN(C)Cc1c(C)[nH]c2ccc(F)cc12 (stereo not shown) [CBK282035]	84.5%
CCCC(C(=O)NCCN(C)C1CCCCC1)n1nc(C)cc1C (stereo not shown) [CBK282039]	96.4%
Cc1nccn1CC(C)C(=O)NCCN(C)C1CCCCC1 (stereo not shown) [CBK282040]	102%
CC(Cn1cc(Cl)cn1)C(=O)NCCN(C)C1CCCCC1 (stereo not shown) [CBK282041]	86.1%
COc1ccc2c(c1)CCCN2C(=O)Cn1nc(C)cc1C [CBK282042]	91.5%
COC(C)CN(C)C(=O)c1oc2cc(C)ccc2c1C (stereo not shown) [CBK282043]	88.1%
CCCc1cc(CNC(=O)C(C)n2ccnc2)on1 (stereo not shown) [CBK282046]	88.3%
CCCc1cc(CNC(=O)c2ccnn2C(C)C)on1 [CBK282047]	97.4%
Cc1cc(C)n(C(C)CNC(=O)C(C)n2ccnc2)n1 (stereo not shown) [CBK282049]	109%
CC(Cc1cccs1)NC(=O)C(C)n1ccnc1 (stereo not shown) [CBK282050]	89.9%
c1ccc2oc(CN3CCC(N4CCCCC4)CC3)cc2c1 [CBK282052]	87.1%
CN(C)CCC1CCCCN1C(=O)[C@@H]1C[C@@H]2C=C[C@H]1C2 (stereo partly shown) [CBK282054]	89.2%

SMILES	viability at 28.5 h, 10 µM
CN(C)CCC1CCCCN1C(=O)C1C2CCCCC21 (stereo not shown) [CBK282055]	98.9%
CCN1CC(C(=O)N2CCCCC2CN(C)C)CC1=O (stereo not shown) [CBK282056]	108%
Cc1cc(C(=O)N2CCn3cnnc3C2)c(C2CC2)o1 [CBK282059]	115%
CC(C)(CN1CCCCC1)NC(=O)CCOc1cccc(F)c1 [CBK282060]	87.2%
CN(C)CC1CCCN(C(=O)[C@@H]2C[C@@H]3C=C[C@H]2C3)C1 (stereo partly shown) [CBK282063]	98%
CCN1CC(C(=O)N2CCCC(CN(C)C)C2)CC1=O (stereo not shown) [CBK282064]	106%
O=C(C1C2CCCCC21)N1CCC(Oc2ccc(F)cc2)CC1 (stereo not shown) [CBK282065]	92.1%
CCn1c(C)nc2cc(C(=O)NC3CCCOC3)ccc21 (stereo not shown) [CBK282066]	92.5%
Cc1nc(C)n(CCNC(=O)C(C)Cc2cccs2)n1 (stereo not shown) [CBK282067]	79.7%
Cc1ccn(CCNC(=O)CC2CC3CCC2C3)n1 (stereo not shown) [CBK282068]	110%
CC(Cc1ccccn1)NC(=O)Cn1ccnc1 (stereo not shown) [CBK282069]	104%
CC(Cc1ccccn1)NC(=O)C1CC2C=CC1C21CC1 (stereo not shown) [CBK282070]	90.7%
CCc1cc(CNC(=O)C2CC3C=CC2C32CC2)on1 (stereo not shown) [CBK282071]	102%
Cc1nonc1CN(C)C(=O)C1CC2C=CC1C21CC1 (stereo not shown) [CBK282076]	97.2%
Cc1cc(C)n(C(C)CC(=O)N2CCCCC2CCN2CCCC2)n1 (stereo not shown) [CBK282078]	106%
CC1c2ccsc2CCN1C(=O)c1ccnn1C(C)C (stereo not shown) [CBK282079]	89.2%
CC(Cn1cncn1)C(=O)N1CCc2sccc2C1C (stereo not shown) [CBK282080]	106%
Cc1nn(C)cc1C(C)NC(=O)c1ccc(CN(C)C)o1 (stereo not shown) [CBK282083]	96.1%
Cc1nccn1CCN(C)C(=O)C1CC2C=CC1C21CC1 (stereo not shown) [CBK282084]	91.7%
CN(C)CC1CCCCN1C(=O)C1CC2C=CC1C21CC1 (stereo not shown) [CBK282085]	86.6%
CN(C)CC1CCCCN1C(=O)C1C2CCCCC21 (stereo not shown) [CBK282087]	97.7%
COCc1ccc(C(=O)N2CCN3C(=O)CCC32C)o1 (stereo not shown) [CBK282091]	104%
